In publication PMC8936051 (Journal of medicinal chemistry, 2022):
Read-outs that look alike come from different tables or passages of the source. Peptide text beside a SMILES is read from it. * marks the point of attachment. Cbz = O=C(OCc1ccccc1)*; CH2F = FC*

Tests used:
[1] = test system: SARS-CoV-2 live virus; assay: microbe, parasite or virus in culture; format: cell-based
[2] = test system: SARS-CoV-2 PP entry into HEK293-ACE2 cells; assay: microbe, parasite or virus in culture; format: cell-based
[3] = target: T1, SARS-CoV-2 3CL protease (Severe acute respiratory syndrome coronavirus 2, UniProt P0DTD1); format: biochemical; conditions: read-out: IC50, 3CL protease assay
[4] = target: T1, SARS-CoV-2 3CL protease; conditions: read-out: IC50, 3CL protease; finding of Sun et al.; cited from earlier work
[5] = read-out: AC50 (potency), CPE assay
[6] = Severe acute respiratory syndrome coronavirus 2, read-out: IC50, PP entry assay
[7] = Severe acute respiratory syndrome coronavirus 2, read-out: AC50 (potency), CPE assay

In the case of `CCN(CC)CCCCNc1nc2cc(Cl)c(Cl)cc2nc1-c1ccc(-c2cccs2)s1` [NCGC00263128, PD 0220245], the AC50 [1, 5] is reported as < 5 µM.
For `CCCc1cc(C)[nH]c(=O)c1CNC(=O)c1cc(-c2ccc(N3CCN(C)CC3)nc2)nc2c1cnn2C(C)C` [NCGC00590975, JQEZ5], the AC50 [1, 5] was < 5 µM.
`COc1ccc(C(C)(C)C)cc1CN[C@H]1C2CCN(CC2)[C@H]1C(c1ccccc1)c1ccccc1` [NCGC00390625, Maropitant] gave an AC50 [1, 5] of 3.55 ± 1.12 µM.
`CCN(CC)CCCNc1ccnc2cc(Cl)ccc12` [NCGC00599688, AQ-13] gave an IC50 ([2]; read-out: IC50, PP entry assay) of 14.2 ± 11.7 µM and an AC50 [1, 5] of 3.98 µM.
In the case of `CC[C@@]1(O)C(=O)OCc2c1cc1n(c2=O)Cc2c-1nc1cc(F)c(C)c3c1c2[C@@H](N)CC3` [NCGC00390584, Exatecan], the IC50 [2, 6] is reported as 0.0031 µM.
With `OC(c1cc(-c2ccc(Cl)cc2)nc2ccccc12)C1CCCCN1` (centres unmarked) [NCGC00482724, Vacquinol-1] the AC50 [1, 5] was < 5 µM.
For `COc1ccc2cc1Oc1ccc(cc1)C[C@H]1c3c(cc4c(c3Oc3cc5c(cc3OC)CCN(C)[C@@H]5C2)OCO4)CCN1C` [NCGC00161621, Cepharanthine], the “efficacy, PP entry assay” value [2] was 102%, the IC50 [2, 6] was 6.88 µM and the AC50 [1, 7] was 1.41 ± 0.39 µM.
In the case of `COC(=O)C[C@H](NC(=O)[C@H](CCSC)NC(=O)[C@H](CCC(N)=O)NC(=O)[C@H](CC(=O)OC)NC(=O)OCc1ccccc1)C(=O)CF` [NCGC00390337, Z-DQMD-FMK] (Cbz-D(OMe)QMD(OMe)-CH2F), the IC50 [3] is listed as 0.92 µM and the IC50 [4] is listed as 0.94 µM.
With `C=C(c1ccc(C(=O)O)c(F)c1)c1cc2c(cc1C)C(C)(C)CCC2(C)C` [NCGC00371011, Fluorobexarotene] the IC50 [3] was 28.9 ± 2.35 µM.
For `O=C(NCc1ccccc1)[C@H](Cc1ccccc1)NC(=O)[C@H]1O[C@@H]1C(=O)NCCc1ccc(O)cc1` [NCGC00345807, CAA-0225], the “efficacy, PP entry assay” value [2] was 89%, the IC50 ([2]; read-out: IC50, PP entry assay) was 0.6 µM and the AC50 [1, 5] was 0.2 ± 0.07 µM.
With `COc1ccc(-c2cc3c(nc2-c2ccccc2)nc(C(=O)NCCN(C)C)n3C)cn1` [NCGC00417833] the AC50 [1, 5] was 22 µM.
With `CCN(CC)Cc1cc(Nc2ccnc3cc(Cl)ccc23)ccc1O` [NCGC00017063, Amodiaquine] the “efficacy, PP entry assay” value [2] was 103%, the IC50 [2, 6] was 19 µM and the AC50 [1, 7] was 4.14 ± 1.41 µM.
With `Nc1nc(Nc2ccc3c(c2)CC[C@@H](N2CCCC2)CC3)nn1-c1cc2c(nn1)-c1ccccc1CCC2` [NCGC00386665, Bemcentinib] the “efficacy, PP entry assay” value [2] was 112%, the IC50 [2, 6] was 19 µM and the AC50 [1, 7] was 3.36 µM.
